Laboratory results reported in publication PMC12373499 (Nature Metabolism, 2025).
“And” between values parts separate entries of the source, which are not always exact repeats. Identical values can stand only once. Where a SMILES comes first, the peptide text is derived from it. [ ]: non-standard residue; d: D form. The star is where a group is joined. X1 = CN1C(=CC=CC=CC2=[N+](CCCCCC(=O)NCCN3C(=O)CC(*)C3=O)c3ccccc3C2(C)C)C(C)(C)c2ccccc21; Aib = CC(C)(N)C(=O)O

Experiments:
[1] = test system: Glp1r^WT/WT, Glp1r^WT/KO and Glp1r^KO/KO mice; assay: Glucose tolerance testing (IPGTT); type: in vivo, mouse; design: Area under the curve for IPGTT: unit not given beside the values; conditions: for Area under the curve for IPGTT: individual mice
Protocol: Glucose was measured in blood from the tail vein at 0, 15, 30, 60, 90 and 120 min post glucose challenge. Mice were socially housed in specific-pathogen-free conditions under a 12 h light–dark cycle with ad libitum access to food and water, relative humidity 55 ± 10% and temperature 21 ± 2 °C.

MIN6-CB4 β cells = assay: MIN6-CB4 cell fluorescent probe labelling, colocalization; type: cell-based
Protocol: MIN6-CB4 cells were generated and phenotyped, as previously described. Cells were grown to 70% confluency in MIN6 media (DMEM High Glucose supplemented with 15% FBS, 71 μM 2-mercaptoethanol, 2 mM glutamine, 100 units ml^−1 penicillin, 100 μg ml^−1 streptomycin). Cells were then seeded in 100 μl MIN6 media per well, on a glass-bottomed 96-well imaging plate previously coated with poly-L-lysine 0.01%.
Probe labelling was analysed using corrected total cell fluorescence, which is integrated density − (area of selected cell × mean fluorescence of background readings)[52],[53]. Colocalization was determined using Manders’ coefficient, which calculates the proportion of pixels in one channel that also show intensity from both channels. Full width at half maximum was used to analyse labelling patterns at the membrane versus cytoplasm. All analyses were performed in ImageJ (NIH), with brightness and contrast linearly adjusted across the entire image for presentation purposes and applied equally between all states under examination.

[2] = daLUXendin660 (tirz Cy5 500nM) vs LUXendin551 (100nM), image 2022.05.06 1-1
[3] = daLUXendin660 (tirz Cy5 500nM) vs LUXendin551 (100nM), image 2022.05.06 1-2
[4] = daLUXendin660 (tirz Cy5 500nM) vs LUXendin551 (100nM), image 2022.05.06 1-3
[5] = daLUXendin660 (tirz Cy5 500nM) vs LUXendin551 (100nM), image 2022.05.06 1-4
[6] = daLUXendin660 (tirz Cy5 500nM) vs LUXendin551 (100nM), image 2022.05.06 2-1
[7] = daLUXendin660 (tirz Cy5 500nM) vs LUXendin551 (100nM), image 2022.05.06 2-2
[8] = daLUXendin660 (tirz Cy5 500nM) vs LUXendin551 (100nM), image 2022.05.06 2-3
[9] = daLUXendin660 (tirz Cy5 500nM) vs LUXendin551 (100nM), image 2022.05.06 2-4
[10] = daLUXendin660 (tirz Cy5 500nM) vs LUXendin551 (100nM), image 2022.05.12 1-1
[11] = daLUXendin660 (tirz Cy5 500nM) vs LUXendin551 (100nM), image 2022.05.12 1-2
[12] = daLUXendin660 (tirz Cy5 500nM) vs LUXendin551 (100nM), image 2022.05.12 1-3
[13] = daLUXendin660 (tirz Cy5 500nM) vs LUXendin551 (100nM), image 2022.05.12 1-4
[14] = daLUXendin660 (tirz Cy5 500nM) vs LUXendin551 (100nM), image 2022.05.12 2-1
[15] = daLUXendin660 (tirz Cy5 500nM) vs LUXendin551 (100nM), image 2022.05.12 2-2
[16] = daLUXendin660 (tirz Cy5 500nM) vs LUXendin551 (100nM), image 2022.05.12 2-3
[17] = daLUXendin660 (tirz Cy5 500nM) vs LUXendin551 (100nM), image 2022.05.12 2-4
[18] = daLUXendin660 (tirz Cy5 500nM) vs sGIP549 (JB2228 100nM), image 2022.05.06 1-1
[19] = daLUXendin660 (tirz Cy5 500nM) vs sGIP549 (JB2228 100nM), image 2022.05.06 1-2
[20] = daLUXendin660 (tirz Cy5 500nM) vs sGIP549 (JB2228 100nM), image 2022.05.06 1-3
[21] = daLUXendin660 (tirz Cy5 500nM) vs sGIP549 (JB2228 100nM), image 2022.05.06 1-4
[22] = daLUXendin660 (tirz Cy5 500nM) vs sGIP549 (JB2228 100nM), image 2022.05.06 2-1
[23] = daLUXendin660 (tirz Cy5 500nM) vs sGIP549 (JB2228 100nM), image 2022.05.06 2-2
[24] = daLUXendin660 (tirz Cy5 500nM) vs sGIP549 (JB2228 100nM), image 2022.05.06 2-3
[25] = daLUXendin660 (tirz Cy5 500nM) vs sGIP549 (JB2228 100nM), image 2022.05.06 2-4
[26] = daLUXendin660 (tirz cy5 500nM) vs sGIP549 (JB2228 100nM), image 2022.05.12 1-1
[27] = daLUXendin660 (tirz cy5 500nM) vs sGIP549 (JB2228 100nM), image 2022.05.12 1-2
[28] = daLUXendin660 (tirz cy5 500nM) vs sGIP549 (JB2228 100nM), image 2022.05.12 1-3
[29] = daLUXendin660 (tirz cy5 500nM) vs sGIP549 (JB2228 100nM), image 2022.05.12 1-4
[30] = daLUXendin660 (tirz cy5 500nM) vs sGIP549 (JB2228 100nM), image 2022.05.12 2-1
[31] = daLUXendin660 (tirz cy5 500nM) vs sGIP549 (JB2228 100nM), image 2022.05.12 2-2
[32] = daLUXendin660 (tirz cy5 500nM) vs sGIP549 (JB2228 100nM), image 2022.05.12 2-3
[33] = daLUXendin660 (tirz cy5 500nM) vs sGIP549 (JB2228 100nM), image 2022.05.12 2-4

## CC[C@H](C)[C@H](NC(=O)[C@H](CC(C)C)NC(=O)[C@H](Cc1c[nH]c2ccccc12)NC(=O)[C@H](CCC(N)=O)NC(=O)[C@@H](NC(=O)[C@H](Cc1ccccc1)NC(=O)[C@H](C)NC(=O)[C@H](CCCCN)NC(=O)[C@H](CCC(N)=O)NC(=O)[C@H](C)NC(=O)[C@@H](NC(=O)[C@H](CCCCN)NC(=O)[C@H](CC(=O)O)NC(=O)[C@H](CC(C)C)NC(=O)C(C)(C)NC(=O)[C@@H](NC(=O)[C@H](CO)NC(=O)[C@H](Cc1ccc(O)cc1)NC(=O)[C@H](CC(=O)O)NC(=O)[C@H](CO)NC(=O)[C@@H](NC(=O)[C@H](Cc1ccccc1)NC(=O)[C@@H](NC(=O)CNC(=O)[C@H](CCC(=O)O)NC(=O)C(C)(C)NC(=O)[C@@H](N)Cc1ccc(O)cc1)[C@@H](C)O)[C@@H](C)O)[C@@H](C)CC)[C@@H](C)CC)C(C)C)C(=O)N[C@@H](C)C(=O)NCC(=O)NCC(=O)N1CCC[C@H]1C(=O)N[C@@H](CO)C(=O)N[C@@H](CO)C(=O)NCC(=O)N[C@@H](C)C(=O)N1CCC[C@H]1C(=O)N1CCC[C@H]1C(=O)N1CCC[C@H]1C(=O)N[C@@H](CSC1CC(=O)N(CCNC(=O)CCCCC[N+]2=C(C=CC=CC=C3N(C)c4ccccc4C3(C)C)C(C)(C)c3ccccc32)C1=O)C(N)=O (some centres unmarked) [daLUXendin660] (H-Y[Aib]EGTFTSDYSI[Aib]LDKIAQKAFVQWLIAGGPSSGAPPPC(X1)-NH2)
[1]; 10 nmol kg^−1, Glp1r^WT/WT and Glp1r^WT/KO mice
  effect on blood glucose in glucose tolerance test: substantial glucose-lowering effects
[1]; GLP1RKO/KO (KO) mice
  Area under the curve for IPGTT: 1726.5 and 1785 and 1967.25 and 1908.75 and 1827 and 1220.25 and 1424.25
[1]; GLP1RWT/WT and GLP1RWT/KO (WT) mice
  Area under the curve for IPGTT: 2001 and 1668.75 and 1041.75 and 969.75 and 1068
[1]; KO mice, group mean (n = 6 TZP, n = 7 daLUX)
  Area under the curve for IPGTT, mean: 1694
[1]; WT mice, group mean (n = 6 TZP, n = 5 daLUX)
  Area under the curve for IPGTT, mean: 1350
[1]; WT mice, one-way ANOVA, Benjamini, Krieger and Yekutieli
  Area under the curve for IPGTT, Mean Diff. WT Veh vs. WT treated: 966.4
[1]; WT vs. KO mice, one-way ANOVA, Benjamini, Krieger and Yekutieli
  Area under the curve for IPGTT, Mean Diff. WT treated vs. KO treated: -344.3
MIN6-CB4 β cells; [2]
  Manders' R: 0.82
  Pearson's: 0.663
MIN6-CB4 β cells; [3]
  Manders' R: 0.763
  Pearson's: 0.555
MIN6-CB4 β cells; [4]
  Manders' R: 0.866
  Pearson's: 0.756
MIN6-CB4 β cells; [5]
  Manders' R: 0.82
  Pearson's: 0.61
MIN6-CB4 β cells; [6]
  Manders' R: 0.849
  Pearson's: 0.778
MIN6-CB4 β cells; [7]
  Manders' R: 0.803
  Pearson's: 0.595
MIN6-CB4 β cells; [8]
  Manders' R: 0.811
  Pearson's: 0.656
MIN6-CB4 β cells; [9]
  Manders' R: 0.83
  Pearson's: 0.66
MIN6-CB4 β cells; [10]
  Manders' R: 0.861
  Pearson's: 0.826
MIN6-CB4 β cells; [11]
  Manders' R: 0.847
  Pearson's: 0.812
MIN6-CB4 β cells; [12]
  Manders' R: 0.799
  Pearson's: 0.723
MIN6-CB4 β cells; [13]
  Manders' R: 0.766
  Pearson's: 0.713
MIN6-CB4 β cells; [14]
  Manders' R: 0.8
  Pearson's: 0.745
MIN6-CB4 β cells; [15]
  Manders' R: 0.809
  Pearson's: 0.769
MIN6-CB4 β cells; [16]
  Manders' R: 0.825
  Pearson's: 0.795
MIN6-CB4 β cells; [17]
  Manders' R: 0.894
  Pearson's: 0.914
MIN6-CB4 β cells; [18]
  Manders' R: 0.9
  Pearson's: 0.838
MIN6-CB4 β cells; [19]
  Manders' R: 0.901
  Pearson's: 0.809
MIN6-CB4 β cells; [20]
  Manders' R: 0.886
  Pearson's: 0.756
MIN6-CB4 β cells; [21]
  Manders' R: 0.894
  Pearson's: 0.818
MIN6-CB4 β cells; [22]
  Manders' R: 0.899
  Pearson's: 0.824
MIN6-CB4 β cells; [23]
  Manders' R: 0.894
  Pearson's: 0.796
MIN6-CB4 β cells; [24]
  Manders' R: 0.901
  Pearson's: 0.822
MIN6-CB4 β cells; [25]
  Manders' R: 0.878
  Pearson's: 0.769
MIN6-CB4 β cells; [26]
  Manders' R: 0.862
  Pearson's: 0.834
MIN6-CB4 β cells; [27]
  Manders' R: 0.735
  Pearson's: 0.645
MIN6-CB4 β cells; [28]
  Manders' R: 0.775
  Pearson's: 0.722
MIN6-CB4 β cells; [29]
  Manders' R: 0.833
  Pearson's: 0.821
MIN6-CB4 β cells; [30]
  Manders' R: 0.823
  Pearson's: 0.764
MIN6-CB4 β cells; [31]
  Manders' R: 0.748
  Pearson's: 0.736
MIN6-CB4 β cells; [32]
  Manders' R: 0.968
  Pearson's: 0.975
MIN6-CB4 β cells; [33]
  Manders' R: 0.784
  Pearson's: 0.683
